{"source": "patent US6503919B1", "about": "“Compounds of 7-oxo-2,3,7,14-tetrahydro-1H-benzo[b]pyrano[3,2-h]acridin carboxylate” (Les Laboratoires Server, priority 1999, dated 2003)", "key": {"P 388 (murine leukaemia)": {"system": "P 388 (murine leukaemia)", "test": "Anti-tumour activity on the leukaemia P 388", "assay_type": "in vivo", "conditions": "B6D2F1 mice, intraperitoneal route on day 1", "method": "The line P 388 (murine leukaemia) was supplied by the National Cancer Institute (Frederick, USA). The tumour cells (10^6 cells) were inoculated on day 0 into the peritoneal cavity of female B6D2F1 mice (Iffa Credo, France). Six mice weighing from 18 to 20 g were used per experimental group. The compounds were administered by the intraperitoneal route on day 1.\nThe anti-tumour activity is expressed as % of T/C: [formula]"}, "[1]": {"system": "murine leukaemia L1210 and human colon carcinoma HT-29", "test": "In vitro cytotoxicity, Microculture Tetrazolium Assay", "assay_type": "cell-based", "conditions": "4 doubling periods: 48 hours (L1210) or 96 hours (HT-29); cell line not stated; read-out: IC50 (cytotoxic concentration that inhibits the proliferation of the treated cells by 50%)", "method": "The murine leukaemia L1210 and the human colon carcinoma HT-29 were used in vitro. The cells are cultured in complete RPMI 1640 culture medium containing 10% foetal calf serum, 2 mM glutamine, 50 U/ml of penicillin, 50 μg/ml of streptomycin and 10 mM Hepes, pH: 7.4. The cells are distributed in microplates and exposed to the cytotoxic compounds for 4 doubling periods, that is to say 48 hours (L1210) or 96 hours (HT-29). The number of viable cells is then quantified by a colorimetric assay, the Microculture Tetrazolium Assay (J. Carmichael et al., Cancer Res., 47, 936-942, (1987)). The results are expressed as IC50 values, which is the cytotoxic concentration that inhibits the proliferation of the treated cells by 50%."}}, "note": "pIC50: −log10 of the molar value."}
{"molecule": "COc1cc2c(c3c1c(=O)c1ccccc1n3C)C=CC(C)(C)O2", "note": "[acronycine]", "values": [{"measurement": "anti-tumour activity in the P 388 model (in words)", "setting": "P 388 (murine leukaemia)", "result": "only marginally active"}]}
{"molecule": "COc1cc2c(c3c1c(=O)c1cc4ccccc4cc1n3C)[C@@H](OC(=O)CCCC(=O)O)[C@@H](OC(=O)CCCC(=O)O)C(C)(C)O2", "note": "(relative stereo) [Example 22, cis-5-({1-[(4-Carboxybutanoyl)oxy]6-methoxy-3,3,14-trimethyl-7-oxo-2,3,7,14-tetrahydro-1H-benzo[b]pyrano[3,2-h]acridin-2-yl}oxy)-5-oxopentanoic acid]", "values": [{"measurement": "melting point", "result": 118, "unit": "°C"}]}
{"molecule": "COc1cc2c(c3c1c(=O)c1cc4ccccc4cc1n3C)[C@@H](OC(=O)CCC(=O)O)[C@@H](OC(=O)CCC(=O)O)C(C)(C)O2", "note": "(racemic) [Example 7, (±)-cis-4-({1-[(3-Carboxypropanoyl)oxy]-6-methoxy-3,3,14-trimethyl-7-oxo-2,3,7,14-tetrahydro-1H-benzo[b]pyrano[3,2-h]acridin-2-yl}oxy)-4-oxobutanoic acid]", "values": [{"measurement": "pIC50", "setting": "[1]", "result": 5.64}, {"measurement": "melting point", "result": 128, "unit": "°C"}]}
{"molecule": "COc1cc2c(c3c1c(=O)c1cc4ccccc4cc1n3C)[C@@H](OC(C)=O)[C@@H](OC(=O)CCCC(=O)O)C(C)(C)O2", "note": "(racemic) [Example 3, (±)-cis-5-{[1-(Acetyloxy)-6-methoxy-3,3,14-trimethyl-7-oxo-2,3,7,14-tetrahydro-1H-benzo[b]pyrano[3,2-h]acridin-2-yl]oxy}-5-oxopentanoic acid]", "values": [{"measurement": "melting point", "result": 155, "unit": "°C"}]}
{"molecule": "COc1cc2c(c3c1c(=O)c1cc4ccccc4cc1n3C)[C@@H](OC(C)=O)[C@@H](OC(=O)CCC(=O)O)C(C)(C)O2", "note": "(racemic) [Example 1, (±)-cis-4-{[1-(Acetyloxy)-6-methoxy-3,3,14-trimethyl-7-oxo-2,3,7,14-tetrahydro-1H-benzo[b]pyrano[3,2-h]acridin-2-yl]oxy}-4-oxobutanoic acid]", "values": [{"measurement": "pIC50", "setting": "[1]", "result": 5.70}, {"measurement": "melting point", "result": 154, "unit": "°C"}]}
